Measurements taken from ChEMBL document CHEMBL4610032, “Inhibitory effects of triarylpyrazole derivatives on LPS-induced nitric oxide and PGE2 productions in murine RAW 264.7 macrophages” (Bioorg Med Chem Lett, 2020).

Tests used:
RAW264.7 [1] = test: Antiinflammatory activity against murine RAW264.7 cells assessed as inhibition of LPS-induced PGE2 production at 10 uM preincubated for 1 hr followed by LPS stimulation and measured after 24 hrs by EIA relative to control; assay type: functional; settings: Mus musculus
RAW264.7 [2] = test: Antiinflammatory activity against murine RAW264.7 cells assessed as inhibition of LPS-induced NO production at 10 uM preincubated for 1 hr followed by LPS stimulation and measured after 24 hrs by Griess assay relative to control; assay type: functional; settings: Mus musculus
[3] = Cytotoxicity against murine RAW264.7 cells assessed as cell viability at 10 uM relative to control; assay type: cell-based; settings: mouse, read-out: Activity
RAW264.7 [4] = test: Antiinflammatory activity against murine RAW264.7 cells assessed as reduction in LPS-stimulated COX2 mRNA expression pretreated for 1 hr followed by LPS addition and measured after 4 hrs by qRT-PCR analysis; assay type: functional, cell-based; settings: Mus musculus
RAW264.7 [5] = test: Antiinflammatory activity against murine RAW264.7 cells assessed as downregulation of LPS-stimulated COX2 protein expression pretreated for 1 hr followed by LPS addition and measured after 24 hrs by Western blot analysis; assay type: functional, cell-based; settings: Mus musculus
RAW264.7 [6] = test: Antiinflammatory activity against murine RAW264.7 cells assessed as inhibition of LPS-induced PGE2 production preincubated for 1 hr followed by LPS stimulation and measured after 24 hrs by EIA; assay type: functional, cell-based; settings: Mus musculus
RAW264.7 [7] = test: Antiinflammatory activity against murine RAW264.7 cells assessed as inhibition of LPS-induced PGE2 production at 10 nM preincubated for 1 hr followed by LPS stimulation and measured after 24 hrs by EIA relative to control; assay type: functional; settings: Mus musculus
RAW264.7 [8] = test: Antiinflammatory activity against murine RAW264.7 cells assessed as inhibition of LPS-induced NO production at 40 uM preincubated for 1 hr followed by LPS stimulation and measured after 24 hrs by Griess assay relative to control; assay type: functional; settings: Mus musculus

IC50 (RAW264.7 [6])	Compound	inhibition at 10 µM (RAW264.7 [1])	inhibition at 10 µM (RAW264.7 [2])	viability at 10 µM [3]	inhibition (RAW264.7 [4])	inhibition (RAW264.7 [5])	inhibition at 0.01 µM (RAW264.7 [7])	inhibition at 40 µM (RAW264.7 [8])
	O=C(NCCCNc1cc(-c2cn(-c3ccccc3)nc2-c2cccc(O)c2)ccn1)c1ccc(O)cc1	31.1%	39.7%	126%				
2.94 µM	COc1ccc(C(=O)NCCCNc2cc(-c3cn(-c4ccccc4)nc3-c3cccc(OC)c3)ccn2)cc1	75.4%	48.8%	112%	Dose-dependent effect	Dose-dependent effect		
	COc1cccc(-c2nn(-c3ccccc3)cc2-c2ccnc(NCCCNC(=O)c3ccc(F)cc3)c2)c1	28.9%	18.6%	133%				
	COc1cccc(-c2nn(-c3ccccc3)cc2-c2ccnc(NCCNC(=O)Nc3ccccc3)c2)c1	53.9%	12.2%	143%				
	O=C(NCCCNc1cc(-c2cn(-c3ccccc3)nc2-c2cccc(O)c2)ccn1)c1cccc(C(F)(F)F)c1	11.6%		123%				
7.06 µM	O=C(NCCCNc1cc(-c2cn(-c3ccccc3)nc2-c2cccc(O)c2)ccn1)c1ccc(F)cc1	63.1%	32.6%	120%				
	CS(=O)(=O)Nc1ccc([N+](=O)[O-])cc1OC1CCCCC1 [NS-398]						59.5%	
5.62 µM	COc1cccc(-c2nn(-c3ccccc3)cc2-c2ccnc(NCCCNC(=O)c3cccc(C(F)(F)F)c3)c2)c1	73.8%	28.8%	115%				
	COc1cccc(-c2nn(-c3ccccc3)cc2-c2ccnc(NCCNC(=O)c3cccc(C(F)(F)F)c3)c2)c1	58.1%	19.1%	125%				
	COc1cccc(-c2nn(-c3ccccc3)cc2-c2ccnc(NCCCNC(=O)c3ccccc3)c2)c1	6.1%	18.7%	118%				
	O=C(NCCCNc1cc(-c2cn(-c3ccccc3)nc2-c2cccc(O)c2)ccn1)c1ccccc1	12.6%	2.1%	145%				
	COc1cccc(-c2nn(-c3ccccc3)cc2-c2ccnc(NCCCNC(=O)Nc3cccc(C(F)(F)F)c3)c2)c1		31.3%	124%				
4.51 µM	COc1cccc(-c2nn(-c3ccccc3)cc2-c2ccnc(NCCNC(=O)Nc3ccc(Cl)c(Cl)c3)c2)c1	76.1%	22%	129%				
	COc1ccc(C(=O)NCCNc2cc(-c3cn(-c4ccccc4)nc3-c3cccc(OC)c3)ccn2)cc1	59.6%	12.3%	116%				
	CC(=N)NCCCC[C@H](N)C(=O)O [L-NIL]							31.5%
	O=C(NCCNc1cc(-c2cn(-c3ccccc3)nc2-c2cccc(O)c2)ccn1)c1ccc(F)cc1	-1.9%	20.4%	127%				
	COc1cccc(-c2nn(-c3ccccc3)cc2-c2ccnc(NCCNC(=O)c3ccc(F)cc3)c2)c1	47.9%	15.4%	136%				
	O=C(NCCNc1cc(-c2cn(-c3ccccc3)nc2-c2cccc(O)c2)ccn1)c1ccc(O)cc1	-56.4%	34.5%	124%				
	COc1cccc(-c2nn(-c3ccccc3)cc2-c2ccnc(NCCNC(=O)c3ccccc3)c2)c1	36.2%	12.8%	132%				
	O=C(NCCNc1cc(-c2cn(-c3ccccc3)nc2-c2cccc(O)c2)ccn1)c1ccccc1	20.9%	12.2%	105%				
	COc1cccc(-c2nn(-c3ccccc3)cc2-c2ccnc(NCCCNC(=O)Nc3ccccc3)c2)c1	56.3%	22.2%	143%				
5.11 µM	COc1cccc(-c2nn(-c3ccccc3)cc2-c2ccnc(NCCNC(=O)Nc3cccc(C(F)(F)F)c3)c2)c1	69.9%	26.1%	165%				
4.21 µM	COc1cccc(-c2nn(-c3ccccc3)cc2-c2ccnc(NCCCNC(=O)Nc3ccc(Cl)c(Cl)c3)c2)c1	77.1%	38.6%	121%		Dose-dependent effect		
	O=C(NCCNc1cc(-c2cn(-c3ccccc3)nc2-c2cccc(O)c2)ccn1)c1cccc(C(F)(F)F)c1	12.2%	18.6%	135%				
